Experimental data: patent publication US6469058B1 (priority 1998, dated 2002)
Values joined by “and” are separate entries in the source; they are usually repeats but may differ in a detail not shown here. Equal values may be shown once. Read-outs that look alike come from different tables or passages of the source.

Assays:
[1] = Phase 1 study of CI-994 in relapsed acute leukemia or other hematologic malignancy; assay type: in vivo
Description: An additional Phase 1 study was conducted in patients with relapsed acute leukemia or other hematologic malignancy using a once daily high-dose 5-day dosing schedule. The MTD was 135 mg/m^2/day. […] Other adverse events included nausea, vomiting, hypotension resulting from dehydration, hypocalcemia, headache, and in one patient each, acute pancreatitis, a pyramidal syndrome characterized by hyperreflexia and bilateral Babinski reflexes, and sepsis. Hematologic toxicities cannot be assessed in this patient population. Two patients with AML developed tumor lysis syndrome, resulting in one death. Transient decreases in peripheral white blood cell counts were noted.

[2] = Route of elimination, radiolabeled drug in urine, monkeys; assay type: in vivo; settings: within 24 hours
Description: (§1) Mass balance/route of elimination studies have not been conducted in humans. Animal studies indicate that the principal route of elimination is via renal excretion, with 80% and 62% of radiolabeled drug appearing in the urine of monkeys and rats, respectively, within 24 hours.

[3] = Route of elimination, radiolabeled drug in urine, rats; assay type: in vivo; settings: within 24 hours
Description: as §1

[4] = tested on: LC-12 squamous cell lung carcinoma tumor; settings: for % Weight Change / CR / Net Log10 Kill / PR / T − C / Toxic Deaths: days 11-15, 18-22, 25-29; for day on which significant tumor growth commenced (FIG. 1): controls Day 10
[5] = human, in vivo
clinical = settings: human, in vivo, po
[6] = Phase 1 dose-escalation study of CI-994 in solid tumor patients (MTD, pharmacokinetics, food effect)
[7] = Table 2 study, CI-994 7.5 mg/kg/day alone
[8] = Table 2 study, CI-994 15 mg/kg/day alone
[9] = Table 2 study, CI-994 30 mg/kg/day alone
[10] = Table 2 study, CI-994 60 mg/kg/day alone
[11] = CI-994 7.5 mg/kg/day alone, days 3-7, 10-14, 17-21
[12] = CI-994 7.5 mg/kg/day alone, days 17-21, 24-28, 31-35
[13] = CI-994 15 mg/kg/day alone, days 3-7, 10-14, 17-21
[14] = CI-994 15 mg/kg/day alone, days 17-21, 24-28, 31-35
[15] = CI-994 30 mg/kg/day alone, days 3-7, 10-14, 17-21
[16] = CI-994 30 mg/kg/day alone, days 17-21, 24-28, 31-35
[17] = CI-994 60 mg/kg/day alone, days 3-7, 10-14, 17-21
[18] = CI-994 60 mg/kg/day alone, days 17-21, 24-28, 31-35

Compound: CC(=O)Nc1ccc(C(=O)Nc2ccccc2N)cc1 [CI-994, 4-acetylamino-N-(2′-aminophenyl)-benzamide]
- dose-limiting toxicity ([1]; in vivo): acute CNS toxicity manifested as sedation and somnolence
- MTD ([1]; patients with relapsed acute leukemia or other hematologic malignancy, once daily high-dose 5-day dosing schedule): 135 mg/m^2/day
- radiolabeled drug appearing in the urine [2]: 80%
- radiolabeled drug appearing in the urine [3]: 62%
- % Weight Change ([4]; CI-994 7.5 mg/kg/day alone): +4%
- CR ([4]; CI-994 7.5 mg/kg/day alone): 1/6
- Net Log10 Kill ([4]; CI-994 7.5 mg/kg/day alone): −1.2
- PR ([4]; CI-994 7.5 mg/kg/day alone): 0/6
- T − C ([4]; CI-994 7.5 mg/kg/day alone): 2.4 days
- Toxic Deaths ([4]; CI-994 7.5 mg/kg/day alone): 0/6
- % Weight Change ([4]; CI-994 15 mg/kg/day alone): +10%
- CR ([4]; CI-994 15 mg/kg/day alone): 0/6
- Net Log10 Kill ([4]; CI-994 15 mg/kg/day alone): −1.4
- PR ([4]; CI-994 15 mg/kg/day alone): 0/6
- T − C ([4]; CI-994 15 mg/kg/day alone): 0.4 days
- Toxic Deaths ([4]; CI-994 15 mg/kg/day alone): 0/6
- % Weight Change ([4]; CI-994 30 mg/kg/day alone): +1%
- CR ([4]; CI-994 30 mg/kg/day alone): 0/6
- Net Log10 Kill ([4]; CI-994 30 mg/kg/day alone): −1.3
- PR ([4]; CI-994 30 mg/kg/day alone): 0/6
- T − C ([4]; CI-994 30 mg/kg/day alone): 1.6 days
- Toxic Deaths ([4]; CI-994 30 mg/kg/day alone): 0/6
- % Weight Change ([4]; CI-994 60 mg/kg/day alone): −9%
- CR ([4]; CI-994 60 mg/kg/day alone): 3/6
- Net Log10 Kill ([4]; CI-994 60 mg/kg/day alone): −0.8
- PR ([4]; CI-994 60 mg/kg/day alone): 0/6
- T − C ([4]; CI-994 60 mg/kg/day alone): 7.8 days
- Toxic Deaths ([4]; CI-994 60 mg/kg/day alone): 0/6
- % Weight Change [4, 7]: +9%
- CR [4, 7]: 0/10
- Net Log10 Kill [4, 7]: 0
- PR [4, 7]: 0/10
- T − C [4, 7]: -1.4 days
- Toxic Deaths [4, 7]: 0/10
- % Weight Change [4, 8]: +11%
- CR [4, 8]: 0/10
- Net Log10 Kill [4, 8]: 0
- PR [4, 8]: 0/10
- T − C [4, 8]: -1.9 days
- Toxic Deaths [4, 8]: 0/10
- % Weight Change [4, 9]: +11%
- CR [4, 9]: 0/10
- Net Log10 Kill [4, 9]: −0.8
- PR [4, 9]: 0/10
- T − C [4, 9]: 4.3 days
- Toxic Deaths [4, 9]: 0/10
- % Weight Change [4, 10]: +11%
- Net Log10 Kill [4, 10]: −0.5
- PR [4, 10]: 0/10
- T − C [4, 10]: 8.7 days
- Toxic Deaths [4, 10]: 0/10
- CR ([4]; Table 2 study, CI-994 60 mg/kg/day alone, 60 mg/kg/day): two complete responses out of 10 and 2/10
- day on which significant tumor growth commenced (FIG. 1) ([4]; oral 30 mg/kg, Days 10-14, 17-21, 24-28): ~24 days
- day on which significant tumor growth commenced (FIG. 1) ([4]; oral 45 mg/kg, Days 10-14, 17-21, 24-28): ~24 days
- tumor growth delayed for (FIG. 1) ([4]; oral 60 mg/kg, Days 10-14, 17-21, 24-28): 33 days
- % Tumor free (C26 colon tumor; [11]): 0/10
- Net Log10 Kill (C26 colon tumor; [11]): −2.2
- T − C (C26 colon tumor; [11]): 1.6 days
- Toxic Deaths (C26 colon tumor; [11]): 0/10
- % Tumor free (C26 colon tumor; [12]): 0/10
- Net Log10 Kill (C26 colon tumor; [12]): −1.3
- T − C (C26 colon tumor; [12]): 3.1 days
- Toxic Deaths (C26 colon tumor; [12]): 0/10
- % Tumor free (C26 colon tumor; [13]): 0/9
- Net Log10 Kill (C26 colon tumor; [13]): −2.3
- T − C (C26 colon tumor; [13]): 1.0 days
- Toxic Deaths (C26 colon tumor; [13]): 0/9
- % Tumor free (C26 colon tumor; [14]): 0/10
- Net Log10 Kill (C26 colon tumor; [14]): −1.0
- T − C (C26 colon tumor; [14]): 6.7 days
- Toxic Deaths (C26 colon tumor; [14]): 0/10
- % Tumor free (C26 colon tumor; [15]): 0/9
- Net Log10 Kill (C26 colon tumor; [15]): −1.8
- T − C (C26 colon tumor; [15]): 4.6 days
- Toxic Deaths (C26 colon tumor; [15]): 0/9
- % Tumor free (C26 colon tumor; [16]): 0/10
- Net Log10 Kill (C26 colon tumor; [16]): −0.8
- T − C (C26 colon tumor; [16]): 8.4 days
- Toxic Deaths (C26 colon tumor; [16]): 1/10
- % Tumor free (C26 colon tumor; [17]): 0/9
- Net Log10 Kill (C26 colon tumor; [17]): −1.8
- T − C (C26 colon tumor; [17]): 4.8 days
- Toxic Deaths (C26 colon tumor; [17]): 0/9
- % Tumor free (C26 colon tumor; [18]): 0/10
- Net Log10 Kill (C26 colon tumor; [18]): −0.7
- T − C (C26 colon tumor; [18]): 10.1 days
- Toxic Deaths (C26 colon tumor; [18]): 0/10
- cumulative toxicity [5]: no evidence of cumulative toxicity
- dose-limiting toxicity [5]: thrombocytopenia or neutropenia
- maximum plasma concentrations with increasing dose levels ([5]; po): less than dose-proportional
- terminal elimination half-life and apparent clearance rate vs dose ([5]; po): independent of the dose administered
- time to maximum blood level after ingestion ([5]; po): 1 to 2 h
- Clinical benefit (Phase 2, 8 mg/m^2 orally daily): Clinical benefit has been reported in patients with renal cell cancer
- Objective responses (Phase 2, 8 mg/m^2 orally daily): Objective responses have been seen in patients with nonsmall cell lung cancer
- dose-limiting toxicity (in vivo, po): Thrombocytopenia
- half-life (clinical): ~15 h
- MTD ([6]; 8 weeks of continuous daily therapy followed by a 2-week drug holiday): 8 mg/m^2/day
- Responses ([6]; dose-escalation study): one partial response in a heavily pretreated patient with NSCLC and a minor response in one patient each with renal cell cancer and NSCLC
- maximum tolerated dose (MTD) ([6]; duration of treatment 14 consecutive days): 15 mg/m^2/day
